Where two headings read alike, the source gives them in different places.
Experiment: Tigecycline plasma PK and % F after PO enteric-coated capsule in dogs
Type: in vivo, Beagle dogs
Settings: female, beagle, dog, plasma, po; for concentration at 60 min / concentration at 75 min / concentration at 90 min / concentration at 120 min / concentration at 150 min / concentration at 180 min / concentration at 210 min / concentration at 240 min / concentration at 0 hr / concentration at 0.3 hr / concentration at 0.7 hr / concentration at 1 hr: Tigecycline Plasma Concentration; for concentration at 60 min / concentration at 75 min / concentration at 90 min / concentration at 120 min / concentration at 150 min / concentration at 180 min / concentration at 210 min / concentration at 240 min: SC424; for bioavailability: read-out: % F; for Tmax: read-out: Tmax (converted); for concentration at 0 hr / concentration at 0.3 hr / concentration at 0.7 hr / concentration at 1 hr: PO 30 mg unformulated enteric-coated capsule
Method: Adult beagle dogs weighing approximately 9 to 15 kg were used in the study. […] Room temperature was set to be maintained between approximately 20±5° C. Relative humidity was monitored but not controlled.
TEKLAD™ Certified Canine Diet was provided once daily in amounts (˜400 grams) appropriate for the size and age of the animals. Tap water was available ad libitum via automatic watering device or water bowls.
Oral dosing of enteric-coated capsules was accomplished by administering them to the back of the dog's mouth, followed by a chase of 5 mL water to ensure swallowing.
Water was provided ad libitum. […] Subsequently, each group of animals was dosed based on the protocol, i.e. either IV, or PO by capsule.
Minocycline (VWR international) was used as an internal standard. Sample processing/clean-up of plasma samples was carried out offline by protein precipitation with acidified acetonitrile using 0.5% trifluoroacetic acid (TFA).
The HPLC system consisted of Shimadzu SIL-HTc HPLC system equipped with dual Shimadzu LC-10ADvp isopumps, a Shimadzu CTO-10ASvp column temperature controller and a Shimadzu SPD-10Avp variable wavelength detector. […] Mobile phase A consisted of 23 mM phosphate buffer pH 2.5 with 4 mM 1-octanesulfonic acid, while mobile phase B consisting of 90% acetonitrile, 10% water, with 2 mM 1-octanesulfonic acid. […] The total runtime was 18 minutes per sample. The mobile phase flow rate was 1.2 mL/min. Detection was performed using the SPD-10Avp variable wavelength detector set at 350 nm, with a sensitivity of 0.001 aufs.
The samples were then centrifuged under refrigeration at 13 k rpm for 5 minutes. The supernatant was taken and the liquid removed to dryness under nitrogen in a turbovap. The dried extract was reconstituted in 60 μL of mobile phase A and the suspension was further centrifuged at 5 k rpm for 5 minutes to pellet any insoluble matter. The resulting supernatant was then injected onto the LC.
The unknown concentration in dog plasma samples was determined by interpolation of the peak area ratios of analyte:internal standard versus the ratio of their nominal concentrations into the regression line obtained from calibration standards spiked in pooled dog plasma. No regression weighting was used for the calculations. […] The calibration curve covered the range of 0.05 μg/mL to 5 μg/mL. […]
The capsules were enterically coated using a standard preclinical protocol to 10% weight gain. Two studies were conducted.

[1] = 15 mg, PO 15 mg enteric-coated capsule with 500 mg CA and 100 mg LLC, mean
[2] = 15 mg, PO 15 mg unformulated enteric-coated capsule, individual dogs
[3] = 15 mg, PO 15 mg unformulated enteric-coated capsule, mean
[4] = 30 mg, 30 mg Formulated (500 mg CA, 100 mg LLC) enteric coated capsule, Study 2 (SC430), mean (% CV) excluding animal 5256

CN(C)c1cc(NC(=O)CNC(C)(C)C)c(O)c2c1C[C@H]1C[C@H]3[C@H](N(C)C)C(O)=C(C(N)=O)C(=O)[C@@]3(O)C(O)=C1C2=O [Tigecycline] showed a concentration at 60 min [1] of 18.7 ng/mL, a concentration at 60 min [2] of 0 ng/mL and a concentration at 60 min [3] of 0 ng/mL. It also gave a concentration at 75 min [1] of 46.1 ng/mL, a concentration at 75 min [2] of 0 ng/mL and a concentration at 75 min [3] of 0 ng/mL. It also gave a concentration at 90 min [1] of 53.8 ng/mL, a concentration at 90 min [2] of 0 ng/mL and a concentration at 90 min [3] of 0 ng/mL. For the same molecule, the concentration at 120 min [1] was 51.5 ng/mL, the concentration at 120 min [2] was 0 ng/mL and the concentration at 120 min [3] was 0 ng/mL. It also gave a concentration at 150 min [1] of 41.7 ng/mL, a concentration at 150 min [2] of 0 ng/mL and a concentration at 150 min [3] of 0 ng/mL. The concentration at 180 min [1] was 37.4 ng/mL, the concentration at 180 min [2] was 0 ng/mL and the concentration at 180 min [3] was 0 ng/mL. The concentration at 210 min [1] was 36.3 ng/mL, the concentration at 210 min [2] was 0 ng/mL and the concentration at 210 min [3] was 0 ng/mL. The concentration at 240 min [1] was 35.2 ng/mL, the concentration at 240 min [2] was 0 ng/mL and the concentration at 240 min [3] was 0 ng/mL. It also gave a Cmax (15 mg, target dose 15 mg, enterically coated capsule, read-out: Observed Mean Cmax) of 75.5 ng/mL, an AUC(0-t) (15 mg, target dose 15 mg, enterically coated capsule, time scale adjusted to 4 hours, read-out: Observed AUC(0-t)) of 133 ng·h/mL and a bioavailability [4] of 14.9%. For the same molecule, the AUC(0-t) (30 mg, 30 mg Formulated (500 mg CA, 100 mg LLC) enteric coated capsule, Study 2 (SC430), mean (% CV) excluding animal 5256, read-out: AUC(0-t)) was 367 ng·h/mL, the Cmax (30 mg, 30 mg Formulated (500 mg CA, 100 mg LLC) enteric coated capsule, Study 2 (SC430), mean (% CV) excluding animal 5256, read-out: Cmax) was 121 ng/mL and the Tmax [4] was 1.58 h. It also gave a bioavailability (30 mg, 30 mg Unformulated enteric coated capsule, Study 2 (SC430)) of 0%, an AUC(0-t) (30 mg, PO 30 mg enteric-coated capsule with 500 mg CA and 100 mg LLC ([…]), SC430, mean excluding animal 5256, read-out: AUC(0-t)) of 367 ng·h/mL and a Cmax (30 mg, PO 30 mg enteric-coated capsule with 500 mg CA and 100 mg LLC ([…]), SC430, mean excluding animal 5256, read-out: Cmax) of 121 ng/mL. For the same molecule, the Tmax (30 mg, PO 30 mg enteric-coated capsule with 500 mg CA and 100 mg LLC ([…]), SC430, mean excluding animal 5256) was 1.6 h, the bioavailability (30 mg, PO 30 mg enteric-coated capsule with 500 mg CA and 100 mg LLC, SC430, calculated from IV PK data of SC431, mean excluding animal 5256) was 14.9% and the bioavailability (30 mg, PO 30 mg unformulated enteric-coated capsule ([…]), SC430, individual dogs) was 0%. For the same molecule, the bioavailability (30 mg, PO 30 mg unformulated enteric-coated capsule ([…]), SC430, mean) was 0%, the Tmax (30 mg, Study 2 (SC430), 30 mg Formulated enteric coated capsule (500 mg citric acid, 100 mg LLC), oral, dogs, N=4 excluding animal 5256, mean (% CV)) was 1.58 h and the bioavailability (30 mg, Study 2 (SC430), 30 mg Unformulated enteric coated capsule (microcrystalline cellulose filler), oral, dogs, N=3, based on that study's IV arm) was 0%. It also gave a concentration at 0 hr (30 mg, SC430, individual dogs) of 0 ng/mL, a concentration at 0 hr (30 mg, SC430, mean) of 0 ng/mL and a concentration at 0.3 hr (30 mg, SC430, individual dogs) of 0 ng/mL. The concentration at 0.3 hr (30 mg, SC430, mean) was 0 ng/mL, the concentration at 0.7 hr (30 mg, SC430, individual dogs) was 0 ng/mL and the concentration at 0.7 hr (30 mg, SC430, mean) was 0 ng/mL. For the same molecule, the concentration at 1 hr (30 mg, SC430, individual dogs) was 0 ng/mL and the concentration at 1 hr (30 mg, SC430, mean) was 0 ng/mL.

From patent publication US9526785B2, “Pharmaceuticals for oral delivery” (Enteris BioPharma, Inc., priority 2013, dated 2016)
